Measured values published in PMC7616174, “Development of Novel 4-Arylpyridin-2-one and 6-Arylpyrimidin-4-one Positive Allosteric Modulators of the M1 Muscarinic Acetylcholine Receptor” (ChemMedChem, 2020).

Key:
hM1 mAChR [1] = target: T1, hM1 mAChR (Homo sapiens, UniProt P11229); test: IP1 accumulation assay (ACh concentration-response curves in absence or presence of modulator); assay type: cell-based
T1 construct: expressed in transfected cells
T1 sequence (P11229 1-460): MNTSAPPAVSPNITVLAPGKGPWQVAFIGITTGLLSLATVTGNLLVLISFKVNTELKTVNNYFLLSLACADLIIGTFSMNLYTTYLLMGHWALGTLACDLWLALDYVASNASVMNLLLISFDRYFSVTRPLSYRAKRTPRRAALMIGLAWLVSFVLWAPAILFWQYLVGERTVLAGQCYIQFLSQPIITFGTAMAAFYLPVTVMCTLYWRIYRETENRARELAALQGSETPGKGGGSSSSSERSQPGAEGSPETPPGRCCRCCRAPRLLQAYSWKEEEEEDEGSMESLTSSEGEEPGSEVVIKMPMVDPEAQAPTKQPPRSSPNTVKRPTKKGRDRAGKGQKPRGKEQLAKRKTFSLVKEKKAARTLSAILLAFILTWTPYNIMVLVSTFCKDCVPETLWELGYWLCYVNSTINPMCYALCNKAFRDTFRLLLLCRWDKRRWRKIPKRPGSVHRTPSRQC
Protocol: Functional activity of the synthesized analogues as racemic mixtures was investigated in IP1 accumulation assays at the M1 mAChR, as described previously.[13–14] ACh concentration-response curves were generated in the absence or presence of a 1 and 10 μM concentration of each modulator. The change in baseline activity (Δbaseline) is an approximate measure of direct allosteric agonism (τB), whereas the pEC50 shift (ΔpEC50) is an approximate measure of functional cooperativity (αβ) of each modulator with ACh in the investigated signalling pathway. We aimed to identify modulators with various degrees of allosteric agonism and modulatory effects on ACh response, as these could generate distinct in vivo outcomes for applications in different conditions in the CNS or gastrointestinal (GI) tract.[[10g,h,j]]
(§1) The compounds were then fully characterised in two functional assays (Figure 2C and D); the Gq-coupled IP1 accumulation assay (Figure S2), which was used for the initial screening of the compounds, and a β-arrestin 2 recruitment assay (Figure S3). The operational efficacy (τB) values for the modulators and their functional cooperativity estimates with ACh (logαβACh) at both signalling pathways were estimated by applying an operational model of allosterism and agonism to the data [Eq. (3)],[16] and are listed in Table 5.
FlpIn CHO cells stably expressing the hM1 mAChR were seeded at 25000 per well of 96-well transparent cell culture plates and grown overnight. […] Cells were then stimulated with increasing concentration of ACh in the absence or presence of increasing concentrations of each modulator for 1 h at 37°C. […] Seven μL of cell lysates were transferred into wells of 384-well Proxiplates (Perki-nElmer Life Sciences), and IP1 levels were measured using the IP-One assay kit (Cisbio, Codolet, France). […] The signal was expressed as the HTRF ratio, interpolated from the standard curve, and normalized to the maximum response to ACh.
Changes in both baseline and pEC50 were quantified by subtracting the estimates at each M1 PAM concentrations with the control values. Propagation of the error on baseline and potency values were determined as follows [Eq. (1)]: σΔ=σPAM2+σcont.2 where σΔ is the standard error of the mean (SEM) for the change in value, and σPAM and σcont. are the SEM from the three-parameter logistic equation analysis in presence or absence of M1 PAM, respectively.
(§2) Functional interaction studies between ACh and allosteric modulators in IP1 and β-arrestin 2 recruitment assays were analysed according to a three-parameter logistic equation or the following operational model of allosterism and agonism [Eq. (3)].[16] E=Basal+(Em−Basal)([A](KB+αβ[B])+τB[B]EC50)^n/EC50n(KB+[B])^n+([A](KB+αβ[B])+τB[B]EC50)^n where Em is the maximal possible system response, and Basal is the response in the absence of agonist. [A] and [B] are concentrations of orthosteric and allosteric ligands, respectively. KB is the equilibrium dissociation constant of allosteric ligand, and EC50 is the concentration of orthosteric agonist required to achieve half maximal response. α and β represent the magnitude of the allosteric effects on orthosteric ligand affinity and efficacy, respectively; τB is the efficacy of allosteric ligand, and n is the slope factor of the transducer function that links occupancy to response.

M1 mAChR = target: T2, M1 mAChR (Homo sapiens, UniProt P11229); test: β-arrestin 2 recruitment assay (BRET); assay type: cell-based
T2 construct: expressed in transfected cells; host or cells: parental FlpIn CHO cells (transient, PEI)
T2 sequence (P11229 1-460): T1 sequence (P11229 1-460)
Source text: as §1
Parental FlpIn CHO cells were plated at 30000 cells/well of 96-well white Culture plates (Perkin Elmer Life Sciences) and transiently transfected with 10 ng/well of M1 Renilla luciferase (Rluc)-8 and 40 ng/well of YFP-β-arrestin 2 using linear polyethyleneimine (PEI/DNA ratio 6:1) diluted in 150 mM NaCl. DNA:PEI complexes were formed by 15 min incubation at room temperature then added to the cells and incubated at 37°C for 24 h prior to use. Cells were then washed and equilibrated in Hanks’ balanced salt solution for 1 h at 37°C. Coelenterazine h at a final concentration of 5 μM was added to each well, followed by addition of increasing concentrations of ACh in the absence or presence of increasing concentrations of each modulator. Lumines-cence and fluorescence signals were measured 5 min after agonist stimulation using the LUMIstar Omega plate reader (BMG LabTech, Offenburg, Germany). […] Data were then normalized to the maximum response to ACh.
as §2

hM1 mAChR [2] = target: T1, hM1 mAChR; test: Whole-cell [3H]NMS equilibrium competition radioligand binding; conditions: [3H]NMS binding
Protocol: To determine the affinity (pKB) of the allosteric modulators for the allosteric site, and their binding cooperativity with ACh (log αACh) at the M1 mAChR, whole cell equilibrium competition binding studies were performed, using [^3H]NMS to label the orthosteric site.
FlpIn Chinese hamster ovary (CHO) cells stably expressing the hM1 mAChR were grown in Dulbecco’s modified Eagle’s medium (DMEM) (Invitrogen, Carlsbad, CA) supplemented with 5% foetal bovine serum (FBS) (Thermo-Trace, Melbourne, Australia) and 300 μg/mL G418 (Invitrogen, Carlsbad, CA). The cells were plated at 50,000 cells per well of 96-well white clear bottom plates (Greiner Bio-one, Kremsmünster, Austria), and were grown overnight. The following day, cells were washed twice with Phosphate Buffered Saline (PBS), and incubated with increasing concentrations of ACh (Sigma) in the absence or presence of increasing concentrations of each modulator and 0.2 nM [^3H]NMS (PerkinElmer Life Sciences) in binding buffer (20 mM HEPES, 100 mM NaCl, 10 mM MgCl2, pH 7.4) for 5 h at room temperature. Nonspecific binding was determined using atropine at the final concentration of 10 μM. The assays were terminated by rapid removal of the unbound radioligand followed by two washes with 100 μL/well ice-cold 0.9% NaCl buffer. Radioactivity was determined by addition of 100 μL/well Ultima gold (PerkinElmer Life Sciences) and counting in a MicroBeta plate reader (PerkinElmer Life Sciences).
Binding interaction studies with allosteric ligands were fitted to the following allosteric ternary complex model [Eq. (2)][15] Y=Bmax|A|/[Λ]+[KAKB/α^′[B]+KB][1+[I]/K1+[B]/KB+α[I][B]/KIKB] where Bmax is the total number of receptors, [A], [B] and [I] denote the concentrations of radioligand, allosteric modulator, and orthosteric ligand, respectively; KA, KB and KI are their respective equilibrium dissociation constants. α’ and α are the affinity cooperativity factors between the allosteric ligand and radioligand or the allosteric modulator and ACh, respectively. Values of α or α’ > 1 denote positive cooperativity, values < 1 but > 0 denote negative cooperativity, and a value of 1 indicates neutral coopera-tivity.

[3] = IP1 accumulation, antilog, in parentheses

ΔpEC50 [1 μM]: change in ACh pEC50 in presence of M1 PAM compared to control curve (hM1 mAChR [1]; 1 μM modulator, FlpIn CHO hM1 cells, mean ± SEM, 3 experiments): 0.96±0.18 | activation at 1 µM (hM1 mAChR [1]; 1 μM modulator, FlpIn CHO hM1 cells, mean ± SEM, 3 experiments, read-out: Δbaseline [1 μM]: change in basal response in presence of M1 PAM compared to control curve): 38.5 ± 3.8% | ΔpEC50 [10 μM]: change in ACh pEC50 in presence of M1 PAM compared to control curve (hM1 mAChR [1]; 10 μM modulator, FlpIn CHO hM1 cells, mean ± SEM, 3 experiments): 1.50±0.32 | activation at 10 µM (hM1 mAChR [1]; 10 μM modulator, FlpIn CHO hM1 cells, mean ± SEM, 3 experiments, read-out: Δbaseline [10 μM]: change in basal response in presence of M1 PAM compared to control curve): 78.6 ± 2.8% | αβ (functional cooperativity with ACh) (hM1 mAChR [1]; [3]): 112 | τB (intrinsic efficacy of the modulator) (hM1 mAChR [1]; [3]): 3 | log τB (logarithm of intrinsic efficacy of the modulator) (hM1 mAChR [1]; IP1 accumulation, operational model): 0.54±0.04 | log αβ (logarithm of functional cooperativity between ACh and modulator) (hM1 mAChR [1]; IP1 accumulation, operational model, pKB constrained to binding value): 2.05±0.12 | αβ (functional cooperativity with ACh) (M1 mAChR; antilog, in parentheses): 56 | τB (intrinsic efficacy of the modulator) (M1 mAChR; antilog, in parentheses): 0.4 | log τB (logarithm of intrinsic efficacy of the modulator) (M1 mAChR; operational model): –0.36±0.12 | log αβ (logarithm of functional cooperativity between ACh and modulator) (M1 mAChR; operational model, pKB constrained to binding value): 1.75±0.11 | Kb (hM1 mAChR [2]; allosteric ternary complex model, mean ± SEM, read-out: pKB (negative logarithm of the allosteric modulator equilibrium dissociation constant) (converted)): 15.8 µM | α (binding cooperativity with ACh) (hM1 mAChR [2]; antilog, in parentheses): 151 | log αACh (logarithm of binding cooperativity between ACh and modulator) (hM1 mAChR [2]; mean ± SEM): 2.18±0.19
SMILES: O=c1cc(-c2ccccc2OCc2ccc(-n3cccn3)nc2)ncn1C1CCCCC1O (stereo not drawn) [Compound 27b, 6-(2-((6-(1H-Pyrazol-1-yl)pyridin-3-yl)methoxy)phenyl)-3-(2-hydroxycyclohexyl)pyrimidin-4(3H)-one]
